Results: paper PMC11206852, “Solubility, pH-Solubility Profile, pH-Rate Profile, and Kinetic Stability of the Tyrosine Kinase Inhibitor, Alectinib” (Pharmaceuticals, 2024)
“Also recorded” adds a separate entry of the source.

Key:
[1] = solubility study in water and different solvents; format: physicochemical; settings: thermodynamic from solid
Experimental: Then, they were covered with aluminum foil to exclude the light effect. Then, all tubes were put in a water bath at 25 ± 1 °C and 50 rpm for 48 h to reach equilibrium. After that, the samples were filtered using a 0.22 µm filter, and 1 mL was injected into the HPLC. Any sample with a high reading was diluted with the mobile phase.

pH-solubility profile = format: physicochemical; settings: for solubility at 48 h: aqueous buffer
Experimental: All buffers were at a concentration of 0.05 M. The experiment was performed in the same way as the previous experiment on solubility.

[2] = photostability in solution and solid state; format: physicochemical
[3] = heat and accelerated stability study of solution in methanol; format: physicochemical
Experimental: Then, the rate constant of degradation at each temperature was calculated, and the shelf life of the solution at each temperature was calculated.

[4] = short-term (24 h) stability of solution in methanol; format: physicochemical; settings: room temperature
[5] = pH stability and pH-rate profile; format: physicochemical; settings: methanolic citrate buffer, pH 3.5, 5 and 6.2
Experimental: A citrate buffer at three pH values was prepared as described above (pH of 3.5, 5, and 6.2). […] The aim was to calculate the rate constant at each pH level and plot it against the pH values.

[6] = sink conditions for dissolution test at pH 6.8 and 4.5; format: physicochemical; settings: 37 °C, 24 h, dose 150 mg, media M1-M16
Experimental: The sink conditions are necessary to perform a successful dissolution test for oral solid dosage forms. […] Phosphate buffer (pH of 6.8) and acetate buffer (pH of 4.5) were prepared. Then, SLS, Tween 80, and ethanol were tried in different concentrations to achieve the target.

NCI-H2228 cell line = test system: NCI-H2228 cell line; parameters: method as in PMID 25205428; settings: oral administration, cited from earlier work
[7] = parameters: method as in PMID 21575866; settings: compared with free plasma concentration; cited from earlier work
[8] = parameters: method as in PMID 23639470; settings: 20 to 300 mg every 12 h; cited from earlier work
[9] = parameters: method as in PMID 25153538; settings: non-fasting conditions; cited from earlier work
[10] = cited from earlier work
[11] = cited from earlier work; remark: listed apart in the source
[12] = known description, no reference given; cited from earlier work
[13] = cited from earlier work; remark: listed apart in the source

CCc1cc2c(cc1N1CCC(N3CCOCC3)CC1)C(C)(C)c1[nH]c3cc(C#N)ccc3c1C2=O.Cl [ALBHCL, 9-ethyl-6,6-dimethyl-8-[4-(morpholin-4-yl)piperidin-1-yl]-11-oxo-6,11-dihydro-5H-benzo[b]carbazole-3-carbonitrile-hydrochloride]
solubility at 48 h ([1]; PEG 400, organic solvent or mixture, PEG400, 25 °C, read-out: solubility): 260 ± 6 µg/mL | solubility at 48 h ([1]; organic solvent or mixture, DMSO, 25 °C, read-out: solubility): 4500 ± 6.1 µg/mL | solubility at 48 h ([1]; organic solvent or mixture, THF, 25 °C, read-out: solubility): 280.9 ± 2.4 µg/mL | solubility at 48 h ([1]; organic solvent or mixture, acetonitrile, 25 °C, read-out: solubility): 150.2 ± 1.1 µg/mL | solubility at 48 h ([1]; organic solvent or mixture, chloroform, 25 °C, read-out: solubility): 620.3 ± 0.58 µg/mL | solubility at 48 h ([1]; organic solvent or mixture, ethanol, 25 °C, read-out: solubility): 210 ± 4.5 µg/mL | solubility at 48 h ([1]; organic solvent or mixture, methanol, 25 °C, read-out: solubility): 1991 ± 7.2 µg/mL | solubility at 48 h ([1]; propylene glycol, organic solvent or mixture, PG, 25 °C, read-out: solubility): 211 ± 5.8 µg/mL | solubility at 48 h ([1]; water, 25 °C, read-out: absolute solubility): 10.3 ± 1.2 µg/mL | solubility at 48 h (pH-solubility profile; pH 3.5, citrate buffer 0.05 M): 50 µg/mL | solubility at 48 h (pH-solubility profile; pH 5, citrate buffer 0.05 M): 25.8 µg/mL | stability at pH 1.2 (pH-solubility profile; pH 1.2, chloride buffer, chromatogram after 24 h): showed degradation; also recorded: instability | pH of maximum solubility (pH-solubility profile; pH 1.2 to 10): 3.5 | remained intact after exposure to light ([2]; solid powder, 36 h light): 82% | recovery from analysis of the powder ([2]; solid powder, light, up to 36 h): 99% | half-life at 50 µg/mL ([2]; solution in methanol exposed to light, solution, light, room temperature, read-out: half-life of photodegradation (converted)): 0.346 days | intact ALBHCL remaining after exposure to light ([2]; solution in methanol, 36 h light): 32% | rate constant of photodegradation (first-order) K ([2]; solution, light): 0.0829 h⁻¹ | rate constant K1 (at 25 °C) ([3]; extrapolated to 25 °C): 0.00075 h⁻¹ | half-life ([3]; solution in methanol, 25 °C): 38.5 days | shelf-life of solution ([3]; solution in methanol, 25 °C, 0.105/K25): 140 h | rate constant of degradation (first-order) K50 °C ([3]; solution in methanol, 50 °C): 0.01013 h⁻¹ | rate constant of degradation (first-order) K55 °C ([3]; solution in methanol, 55 °C): 0.01382 h⁻¹ | rate constant of degradation (first-order) K60 °C ([3]; solution in methanol, 60 °C): 0.02579 h⁻¹ | duration of stability of solutions [4]: 24 h | effect of pH on stability [5]: increasing the pH would increase stability | dissolution media that fulfilled sink conditions [6]: phosphate buffer 6.8 + 2% SLS (M3), phosphate buffer 6.8 + 5% Tween 80 (M6), acetate buffer 4.5 + 2% SLS (M11), and acetate buffer 4.5 + 5% Tween 80 (M14) | tumor regression (NCI-H2228 cell line; NCI-H2228 cell line): notable regression | ED50 of tumor suppression (NCI-H2228 cell line; tumor-bearing mice): 0.46 mg/kg | measured concentrations in the blood-cerebrospinal fluid (CSF) barrier [7]: approximately equal to the free concentration of ALBHCl in plasma | time of peak plasma levels after administration [8]: 2.00 to 4.61 h | increase of AUC [9]: 20% | increase of Cmax [9]: 20% | adverse drug reaction: drug-induced liver injury [10]: 1.3% | adverse drug reaction: interstitial lung disease [10]: 1.3% | adverse drug reaction: photosensitivity reaction [10]: 5.3% | adverse drug reaction: stomatitis [10]: 3.3% | adverse drug reaction: weight gain [10]: 9.9% | nephrotoxicity [10]: reported in rare cases | bradycardia ([10]; increased exposure, ref Pruis et al. 17): linked to bradycardia | lipophilicity [11]: highly lipophilic | logP ([11]; no method or reference given): 5.5 | solubility in water, descriptive [12]: practically insoluble | route of most elimination [13]: feces
